The results in this text go back to US20180206491A1, “SUBSTITUTED CYCLIC ARYL AND HETEROARYL CARBOXYLIC ACID HYDRAZIDES OR SALTS THEREOF AND USE THEREOF TO INCREASE STRESS TOLERANCE IN PLANTS” (Bayer CropScience Aktiengesellschaft, priority 2015, published 2018).

Holding throughout (conditions): spray application
Assay [1] deals with Brassica napus. The assay can be described thus: In vivo analyses Part B: drought stress, appearance versus stressed control plants in categories. Set-up: key: 0: no positive effect; +: slight positive effect; ++: clear positive effect; +++: strong positive effect. The protocol:
(§1) Seeds of monocotyledonous and dicotyledonous crop plants were sown in sandy loam in plastic pots, covered with soil or sand and cultivated in a greenhouse under good growth conditions. The test plants are treated at the early leaf stage (BBCH10-BBCH13). To assure uniform water supply before commencement of stress, the potted plants were supplied with water by dam irrigation prior to substance application. The inventive compounds were first formulated as wettable powders (WP) or dissolved in a solvent mixture. The further dilution was effected with water supplemented with 0.2% wetting agent (e.g. agrotin). The finished spray liquor was sprayed onto the green parts of the plant at an equivalent water application rate of 600 l/ha. Substance application was followed immediately by stress treatment of the plants. Drought stress was induced by gradual drying out under the following conditions: “Day”: 14 hours with illumination at ˜26-30° C. “Night”: 10 hours without illumination at ˜18-20° C. The duration of the respective stress phases was guided mainly by the condition of the stressed control plants. It was ended (by re-irrigating and transfer to a greenhouse with good growth conditions) as soon as irreversible damage was observed on the stressed control plants. The end of the stress phase was followed by an about 4-7-day recovery phase, during which the plants were once again kept under good growth conditions in a greenhouse. The duration of the recovery phase was guided mainly by when the trial plants had attained a state which enabled visual scoring of potential effects, and was therefore variable. Once this juncture had been reached, the appearance of the plants treated with test substances was recorded in comparison to the stressed control plants by the following categories: • 0 no positive effect • + slight positive effect • ++ clear positive effect • +++ strong positive effect In order to rule out any influence on the effects observed by any fungicidal or insecticidal action of the test compounds, it was additionally ensured that the tests proceeded without fungal infection or insect infestation. The values reported in tables B-1 and B-2 below are mean values of the results from at least three repeats. Effects of selected compounds of the general formula (I) under drought stress according to the following tables B-1 and B-2: […]

For assay [2], the system named is Triticum aestivum. The assay is described as above. Also noted: key: 0: no positive effect; +: slight positive effect; ++: clear positive effect; +++: strong positive effect. The protocol:
as §1

Assay [3] relates to Triticum aestivum. The assay can be described thus: In vivo analyses: drought stress, visual scoring of damage, efficacy EF. On the procedure:
(§2) Seeds of monocotyledonous and dicotyledonous crop plants were sown in sandy loam in wood-fiber or plastic pots, covered with soil or sand and cultivated in a greenhouse under good growth conditions. The trial plants were treated at the early leaf stage (BBCH10-BBCH13). To assure uniform water supply before commencement of stress, the potted plants were supplied with water by dam irrigation prior to substance application. The inventive compounds formulated in the form of wettable powders (WP) were sprayed onto the green parts of the plants as an aqueous suspension at an equivalent water application rate of 600 I/ha with addition of 0.2% wetting agent (e.g. agrotin). Substance application was followed immediately by stress treatment of the plants. For this purpose, the wood-fiber pots were transferred in plastic inserts in order to prevent them from subsequently drying out too quickly. Drought stress was induced by gradual drying out under the following conditions: “Day”: 14 hours with illumination at ˜26-30° C. “Night”: 10 hours without illumination at ˜18-20° C. The duration of the respective stress phases was guided mainly by the condition of the stressed control plants. It was ended (by re-irrigating and transfer to a greenhouse with good growth conditions) as soon as irreversible damage was observed on the stressed control plants. The end of the stress phase was followed by an about 4-7-day recovery phase, during which the plants were once again kept under good growth conditions in a greenhouse. The duration of the recovery phase was guided mainly by when the trial plants had attained a state which enabled visual scoring of potential effects, and is therefore variable. Once this juncture was reached, the intensities of damage were scored visually in comparison to untreated, unstressed controls of the same age. The damage intensity was at first assessed in percent. These values were then used to calculate the efficacy of the test compounds by the following formula: [formula] EF: Efficacy DIs: Damage intensity of the stressed control plants DIt: Damage intensity of the stressed plants treated with test compound The values reported in tables A-1 to A-3 below are mean values from at least one trial with at least two repeats, showing the effects of selected compounds of the general formula (I) under drought stress on various crop plants.

Assay [4] has as its system Zea mays. The assay is described as above. The protocol: as §2
Assay [5] has as its system Brassica napus. The description is as above. The protocol: as §2

Regarding `O=C(c1ccccc1C(F)(F)F)N(Cc1ccc(F)cc1F)N1CCCC1` [A2-15], the “Effect (BRSNS)” value in assay [1] (250 g/ha) was “+”. Moreover, in assay [2] (250 g/ha), the “Effect (TRZAS)” value is “+”. As for `COc1c(C)cnc(CN(C(=O)c2ccccc2C(F)(F)F)N2CCCC2)c1C` [A2-37], the “EF [%] (TRZAS)” value in assay [3] (250 g/ha) is >5%. The “EF [%] (ZEAMX)” value in assay [4] (25 g/ha) is on record as >5%. In the case of `O=C(c1ccccc1C(F)(F)F)N(Cc1ccc2ccccc2n1)N1CCCC1` [A2-122], in assay [5] (250 g/ha), the “EF [%] (BRSNS)” value is >5%. Also, the “EF [%] (TRZAS)” value in assay [3] (250 g/ha) is given as >5%. Moreover, in assay [4] (250 g/ha), the “EF [%] (ZEAMX)” value was >5%.

Regarding `COC1CCN(N(Cc2ccccn2)C(=O)c2ccccc2C(F)(F)F)C1` (stereo not shown) [A3-21, N-(3-Methoxypyrrolidin-1-yl)-N-(pyridin-2-ylmethyl)-2-(trifluoromethyl)benzamide], the “EF [%] (ZEAMX)” value in assay [4] (250 g/ha) was >5%. `O=C(c1ccc(Cl)c(Cl)c1)N(Cc1cc(Cl)ccc1Cl)N1CCCC1` [A5-6]: in assay [4] (250 g/ha), the “EF [%] (ZEAMX)” value is recorded as >5%. For `O=C(c1ccc(F)cc1C(F)(F)F)N(Cc1ccccc1Cl)N1CCCC1` [A6-1], the “EF [%] (TRZAS)” value in assay [3] (25 g/ha) is given as >5%. For the same molecule, the “EF [%] (ZEAMX)” value in assay [4] (250 g/ha) was >5%. For `COc1c(C)cnc(CN(C(=O)c2ccc(F)cc2C(F)(F)F)N2CCCC2)c1C` [A6-37], the “EF [%] (BRSNS)” value in assay [5] (2.5 g/ha) is given as >5%.

On to `O=C(c1ccccc1Cl)N(Cc1ccc(F)cc1F)N1CCCC1` [A7-15], for which, in assay [1] (250 g/ha), the “Effect (BRSNS)” value is given as “+”. The “Effect (TRZAS)” value in assay [2] (25 g/ha) is “+”. For the molecule `O=C(c1ccccc1Cl)N(Cc1ccc(Cl)nc1)N1CCCC1` [A7-94], in assay [2] (25 g/ha), the “Effect (TRZAS)” value is listed as “+”. Still for that read-out and setting: to `O=C(c1ccc(Cl)cc1Cl)N(Cc1ccc(F)cc1F)N1CCCC1` [A8-15] belongs “+”. Same read-out and setting: to `COc1ccccc1C(=O)N(Cc1ccc(F)cc1F)N1CCCC1` [A9-15] belongs “+”. Regarding `CN1CCN(N(Cc2ccccc2Cl)C(=O)c2ccccc2C(F)(F)F)CC1` [A12-1], the “Effect (TRZAS)” value in assay [2] (250 g/ha) is reported as “+”. `CN1CCN(N(Cc2ccccn2)C(=O)c2ccccc2C(F)(F)F)CC1` [A12-21, N—(N-Methylpyridazin-1-yl)-N-(pyridin-2-ylmethyl)-2-(trifluoromethyl)-benzamide]: the “Effect (BRSNS)” value in assay [1] (250 g/ha) is “+”. Take `CN1CCN(N(Cc2nccc(Cl)c2Cl)C(=O)c2ccccc2C(F)(F)F)CC1` [A12-40]: in assay [1] (250 g/ha), the “Effect (BRSNS)” value was “+”. Further, the “Effect (TRZAS)” value in assay [2] (25 g/ha) is listed as “+”.

Consider `COC1CCCN(N(Cc2ccccc2Cl)C(=O)c2ccccc2C(F)(F)F)C1` (stereo not shown) [A13-1], for which the “Effect (BRSNS)” value in assay [1] (250 g/ha) is on record as “+”. Moreover, the “Effect (TRZAS)” value in assay [2] (250 g/ha) was “+”.

On to `COC1CCCN(N(Cc2ccccn2)C(=O)c2ccccc2C(F)(F)F)C1` (stereo not shown) [A13-21], for which, in assay [2] (250 g/ha), the “Effect (TRZAS)” value is given as “+”.

In the case of `COC1CCCN(N(Cc2nccc(Cl)c2Cl)C(=O)c2ccccc2C(F)(F)F)C1` (stereo not shown) [A13-40], in assay [2] (250 g/ha), the “Effect (TRZAS)” value is on record as “+”. `COC1CCCN(N(Cc2ccccc2C#N)C(=O)c2ccccc2C(F)(F)F)C1` (stereo not shown) [A13-61]: in assay [1] (25 g/ha), the “Effect (BRSNS)” value is on record as “+”. As for `N#Cc1ccccc1CN(C(=O)c1cccc2nnsc12)N1CCCC1` [A14-61], the “Effect (BRSNS)” value in assay [1] (250 g/ha) is “+”. The “Effect (TRZAS)” value in assay [2] (25 g/ha) is given as “+”.

As for `O=C(c1cnccc1C(F)(F)F)N(Cc1ccc(F)cc1F)N1CCCC1` [B2-15], the “Effect (TRZAS)” value in assay [2] (250 g/ha) was “+”. Consider `O=C(c1cnccc1C(F)(F)F)N(Cc1ncc(C(F)(F)F)cc1Cl)N1CCCC1` [B2-36], for which, in assay [1] (250 g/ha), the “Effect (BRSNS)” value is “+”. Moreover, in assay [2] (25 g/ha), the “Effect (TRZAS)” value is on record as “+”.

As to `N#Cc1ccccc1CN(C(=O)c1cnccc1C(F)(F)F)N1CCCC1` [B2-61, N-(2-Cyanobenzyl)-N-(pyrrolidin-1-yl)-4-(trifluoromethyl)nicotinamide], the “EF [%] (BRSNS)” value in assay [5] (25 g/ha) is >5%. In addition, in assay [3] (25 g/ha), the “EF [%] (TRZAS)” value was >5%. For the same molecule, in assay [4] (250 g/ha), the “EF [%] (ZEAMX)” value is >5%. Consider `O=C(c1cnccc1C(F)(F)F)N(Cc1ccc(Cl)nc1)N1CCCC1` [B2-94], for which, in assay [2] (25 g/ha), the “Effect (TRZAS)” value is “+”.

With `CC(c1ccc(F)cc1)N(C(=O)c1cnccc1C(F)(F)F)N1CCCC1` (stereo not shown) [B2-159], the “Effect (BRSNS)” value in assay [1] (250 g/ha) is reported as “+”. Also, the “Effect (TRZAS)” value in assay [2] (250 g/ha) was “+”. As for `O=C(c1cnccc1C(F)(F)F)N(Cc1ccccc1F)N1CCOCC1` [B5-11], the “Effect (BRSNS)” value in assay [1] (250 g/ha) was “+”.

Consider `O=C(c1cnccc1C(F)(F)F)N(Cc1ccccn1)N1CCOCC1` [B5-21], for which the “Effect (BRSNS)” value in assay [1] (250 g/ha) is “+”.

As for `N#Cc1ccccc1CN(C(=O)c1cnccc1C(F)(F)F)N1CCOCC1` [B5-61, N-(2-Cyanobenzyl)-N-(morpholin-4-yl)-4-(trifluoromethyl)-nicotinamide], the “Effect (BRSNS)” value in assay [1] (250 g/ha) is on record as “+”. Further, the “Effect (TRZAS)” value in assay [2] (250 g/ha) was “+”. Consider `CN1CCN(N(Cc2ccccc2Cl)C(=O)c2cnccc2C(F)(F)F)CC1` [B6-1], for which the “Effect (TRZAS)” value in assay [2] (250 g/ha) is recorded as “+”.

With `CN1CCN(N(Cc2ccccn2)C(=O)c2cnccc2C(F)(F)F)CC1` [B6-21], the “Effect (BRSNS)” value in assay [1] (250 g/ha) was “+”. The “Effect (TRZAS)” value in assay [2] (250 g/ha) is recorded as “+”. Take `CN1CCN(N(Cc2ccccc2C#N)C(=O)c2cnccc2C(F)(F)F)CC1` [B6-61]: the “Effect (TRZAS)” value in assay [2] (250 g/ha) is given as “+”.

Turning to `COC1CCCN(N(Cc2ccccc2Cl)C(=O)c2cnccc2C(F)(F)F)C1` (stereo not shown) [B7-1], the “Effect (TRZAS)” value in assay [2] (25 g/ha) is “++”. Take `COC1CCCN(N(Cc2ccccn2)C(=O)c2cnccc2C(F)(F)F)C1` (stereo not shown) [B7-21]: in assay [1] (25 g/ha), the “Effect (BRSNS)” value is on record as “+”. Turning to `COC1CCCN(N(Cc2ccccc2C#N)C(=O)c2cnccc2C(F)(F)F)C1` (stereo not shown) [B7-61], the “Effect (TRZAS)” value in assay [2] (250 g/ha) is “+”. With `N#Cc1ccccc1CN(C(=O)c1ccncc1)N1CCCCC1` [C4-61], the “EF [%] (TRZAS)” value in assay [3] (25 g/ha) was >5%. Further, in assay [4] (250 g/ha), the “EF [%] (ZEAMX)” value is >5%. As for `CN1CCN(N(Cc2ccccc2C#N)C(=O)c2ccncc2)CC1` [C6-61], in assay [5] (2.5 g/ha), the “EF [%] (BRSNS)” value is given as >5%. Also, in assay [3] (25 g/ha), the “EF [%] (TRZAS)” value was >5%. Turning to `O=C(c1ccncc1)N(Cc1ccccc1Cl)N1CCOCC1` [C7-1], the “EF [%] (BRSNS)” value in assay [5] (2.5 g/ha) was >5%.

`COC1CCCN(N(Cc2cccc(Cl)c2)C(=O)c2ccncc2)C1` (stereo not shown) [C8-2]: the “EF [%] (BRSNS)” value in assay [5] (250 g/ha) was >5%. Turning to `COC1CCCN(N(Cc2cccc(C#N)c2)C(=O)c2ccncc2)C1` (stereo not shown) [C8-62], the “EF [%] (BRSNS)” value in assay [5] (2.5 g/ha) was >5%. The “EF [%] (ZEAMX)” value in assay [4] (250 g/ha) is recorded as >5%. On to `N#Cc1ccccc1CN(C(=O)c1ccnnc1)N1CCCC1` [F1-61], for which the “Effect (BRSNS)” value in assay [1] (25 g/ha) is given as “+”. The “Effect (TRZAS)” value in assay [2] (100 g/ha) is “+”.
